{
  "source": "patent US20130245110A1",
  "about": "“USE FOR CANNABINOIDS” (priority 2008, published 2013)",
  "key": {"pancreatic lipase": {"target": "T1, pancreatic lipase (Homo sapiens, UniProt P16233)", "T1 construct": "host or cells: endogenous enzyme in subjects (in vivo)", "T1 sequence (P16233 17-465)": "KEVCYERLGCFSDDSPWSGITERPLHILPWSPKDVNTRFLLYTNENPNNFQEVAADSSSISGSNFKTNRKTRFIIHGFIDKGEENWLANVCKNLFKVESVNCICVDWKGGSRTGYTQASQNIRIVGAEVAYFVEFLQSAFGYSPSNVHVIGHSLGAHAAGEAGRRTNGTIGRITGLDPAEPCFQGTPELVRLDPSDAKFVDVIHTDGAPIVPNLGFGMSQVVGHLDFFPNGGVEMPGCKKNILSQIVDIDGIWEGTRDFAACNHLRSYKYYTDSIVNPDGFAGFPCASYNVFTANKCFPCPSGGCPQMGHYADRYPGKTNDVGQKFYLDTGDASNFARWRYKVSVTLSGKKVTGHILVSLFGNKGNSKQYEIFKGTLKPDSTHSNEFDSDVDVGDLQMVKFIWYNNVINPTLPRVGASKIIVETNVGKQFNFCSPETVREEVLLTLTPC", "details": "subjects eating a 30% fat diet; cited from earlier work"}, "[1]": {"test_system": "dietary induced obese (DIO) mouse model", "experiment": "24 h energy expenditure by indirect calorimetry, chronic dosing study", "assay_type": "in vivo", "details": "DIO mice; 10 mg·kg−1 p.o.; relative to control, first 12 h post-dosing", "description": "The C57B1/6 mouse fed on a high fat diet for around 12 weeks is a standard model used to evaluate agents likely to affect metabolic disease including obesity, type II diabetes and dyslipidaemia. Thus both potential anti-obesity effects and effects on diabetic and dyslipidaemia parameters will be measured.\n(§1) Once the acute studies were complete the mice were grouped in two groups of five mice for the chronic dosing study. Dosing was daily by oral gavage at 09:00-10:00."}, "[2]": {"test_system": "dietary induced obese (DIO) mouse model", "experiment": "Thermic response to food (energy expenditure after Complan meal), chronic dosing study", "assay_type": "in vivo", "parameters": "Thermic response to food: unit not given here", "details": "DIO mice, days 15-17; for Thermic response to food: 10 mg·kg−1 p.o.", "description": "as §1\nEnergy expenditure consists of basal metabolic rate, exercise-induced energy expenditure, and non-exercise thermogenesis. The latter is the most likely area to be affected by anti-obesity agents. Non-exercise thermogenesis includes the thermic response to food, which in rodents can be measured by examining energy expenditure in response to a meal. This was measured after an oral dose of complan (see methods)."}, "rat isolated aortae": {"test_system": "rat isolated aortae", "experiment": "In vitro vascular studies by wire myography"}},
  "note": "Values joined by “and” are separate entries in the source; they are usually repeats but may differ in a detail not shown here. Equal values may be shown once.",
  "data": [
    {"smiles": "CCCCCCCCCCC[C@@H](C[C@@H]1OC(=O)[C@H]1CCCCCC)OC(=O)[C@H](CC(C)C)NC=O", "note": "[Orlistat]", "values": [
      {"measurement": "Block of triacylglycerol hydrolysis", "setting": "pancreatic lipase", "value": 30, "unit": "%"}
    ]},
    {"smiles": "Cc1c(C(=O)NN2CCCCC2)nn(-c2ccc(Cl)cc2Cl)c1-c1ccc(Cl)cc1", "note": "[rimonabant, reference compound]", "values": [
      {"measurement": "Effect on 24 h energy expenditure (days 10-12)", "setting": "[1]", "value": "small increase in energy expenditure"},
      {"measurement": "Thermic response to food", "setting": "[2]; Hour 0.44", "value": "1.11 and 1.21 and 2.21"},
      {"measurement": "Thermic response to food", "setting": "[2]; Hour 0.67", "value": "1.38 and 1.56 and 2.67"},
      {"measurement": "Thermic response to food", "setting": "[2]; Hour 4.00", "value": "1.56 and 2.90 and 3.09"},
      {"measurement": "Thermic response to food, effect in words", "setting": "[2]; chronic-study doses (rimonabant 10, pure THCV 0.3 mg·kg−1 p.o.)", "value": "without effect"}
    ]},
    {"smiles": "COc1ccc(CCN(C)CCCC(C#N)(c2ccc(OC)c(OC)c2)C(C)C)cc1OC", "note": "(stereo not shown) [verapamil, reference compound]", "values": [
      {"measurement": "Vasorelaxation of pre-constricted vessels", "setting": "rat isolated aortae", "value": "significant vasorelaxation"}
    ]}
  ]
}
